What was measured:
Test in all cases: cells
D283 Med = assay type: functional, cell-based, Homo sapiens; conditions: Homo sapiens, D283 Med
Description: SANGER: Inhibition of human D-283MED cell growth in a cell viability assay.

TGBC1TKB = assay type: functional, cell-based, Homo sapiens; conditions: Homo sapiens, TGBC1TKB;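 note: growth inhibition of TGBC1TKB cells, read out by a cell viability assay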
Description: SANGER: Inhibition of human TGBC1TKB cell growth in a cell viability assay.

HAL-01 = assay type: functional, cell-based; conditions: Homo sapiens;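 note: growth inhibition of human HAL-01 cells, read out with a cell viability assay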
Description: SANGER: Inhibition of human HAL-01 cell growth in a cell viability assay.

ONS-76 = assay type: functional, cell-based, Homo sapiens; conditions: Homo sapiens, ONS-76;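 note: growth inhibition of human ONS-76 cells, read out with a cell viability assay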
Description: SANGER: Inhibition of human ONS-76 cell growth in a cell viability assay.

GI-ME-N = assay type: functional, cell-based, Homo sapiens; conditions: Homo sapiens, GI-ME-N;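 note: growth inhibition of human GI-ME-N cells, read out with a cell viability assay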
Description: SANGER: Inhibition of human GI-ME-N cell growth in a cell viability assay.

KG-1 = assay type: functional, cell-based; conditions: Homo sapiens;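 note: growth inhibition of KG-1 cells, read out by a cell viability assay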
8-MG-BA = assay type: functional, cell-based, Homo sapiens; conditions: Homo sapiens, 8-MG-BA;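 note: growth inhibition of 8-MG-BA cells, read out with a cell viability assay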
Description: SANGER: Inhibition of human 8-MG-BA cell growth in a cell viability assay.

NCI-H209 = assay type: functional, cell-based; conditions: Homo sapiens;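 note: growth inhibition of human NCI-H209 cells, measured by a cell viability assay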
Description: SANGER: Inhibition of human NCI-H209 cell growth in a cell viability assay.

HOP-62 = assay type: functional, cell-based, Homo sapiens; conditions: Homo sapiens, HOP-62;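 note: cell growth inhibition determined with a viability assay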
Description: SANGER: Inhibition of human HOP-62 cell growth in a cell viability assay.

LAN-6 = assay type: functional, cell-based, Homo sapiens; conditions: Homo sapiens, LAN-6;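 note: growth inhibition of LAN-6 cells, determined with a cell viability assay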
Description: SANGER: Inhibition of human LAN-6 cell growth in a cell viability assay.

NKM-1 = assay type: functional, cell-based; conditions: Homo sapiens;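 note: growth inhibition of NKM-1 cells, read out with a cell viability assay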
KURAMOCHI = assay type: functional, cell-based; conditions: Homo sapiens;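 note: growth inhibition of KURAMOCHI cells, read out with a cell viability assay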
Description: SANGER: Inhibition of human KURAMOCHI cell growth in a cell viability assay.

NCI-H720 = assay type: functional, cell-based; conditions: Homo sapiens;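 note: growth inhibition of human NCI-H720 cells determined by a cell viability assay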
Description: SANGER: Inhibition of human NCI-H720 cell growth in a cell viability assay.

A253 cell line = assay type: functional, cell-based, Homo sapiens; conditions: Homo sapiens, A253;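 note: growth inhibition of A253 cells, read out with a cell viability assay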
Description: SANGER: Inhibition of human A253 cell growth in a cell viability assay.

LB2518-MEL = assay type: functional, cell-based, Homo sapiens; conditions: Homo sapiens, LB2518-MEL;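 note: growth inhibition of human LB2518-MEL cells, measured with a cell viability assay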
Description: SANGER: Inhibition of human LB2518-MEL cell growth in a cell viability assay.

NB14 = assay type: functional, cell-based; conditions: Homo sapiens;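 note: growth inhibition of NB14 cells measured with a cell viability assay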
Description: SANGER: Inhibition of human NB14 cell growth in a cell viability assay.

NCI-H1155 = assay type: functional, cell-based; conditions: Homo sapiens;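 note: cell growth inhibition measured by a viability assay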
Description: SANGER: Inhibition of human NCI-H1155 cell growth in a cell viability assay.

EW-16 = assay type: functional, cell-based, Homo sapiens; conditions: Homo sapiens, EW-16;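 note: growth inhibition of human EW-16 cells, read out as cell viability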
Description: SANGER: Inhibition of human EW-16 cell growth in a cell viability assay.

SJSA-1 = assay type: functional, cell-based, Homo sapiens; conditions: Homo sapiens, SJSA-1;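 note: growth inhibition of human SJSA-1 cells, read out through a cell viability measurement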
Description: SANGER: Inhibition of human SJSA-1 cell growth in a cell viability assay.

BE-13 = assay type: functional, cell-based; conditions: Homo sapiens;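 note: growth inhibition of human BE-13 cells, measured with a cell viability assay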
Description: SANGER: Inhibition of human BE-13 cell growth in a cell viability assay.

LB771-HNC = assay type: functional, cell-based, Homo sapiens; conditions: Homo sapiens, LB771-HNC;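 note: growth inhibition of LB771-HNC human cells, read out with a cell viability assay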
A4-Fuk = assay type: functional, cell-based; conditions: Homo sapiens;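 note: growth inhibition of A4-Fuk cells, read out by a cell viability assay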
Description: SANGER: Inhibition of human A4-Fuk cell growth in a cell viability assay.

IST-MES1 = assay type: functional, cell-based, Homo sapiens; conditions: Homo sapiens, IST-MES1;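 note: growth inhibition of IST-MES1 cells, measured with a cell viability assay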
Description: SANGER: Inhibition of human IST-MES1 cell growth in a cell viability assay.

KP-N-YN = assay type: functional, cell-based; conditions: Homo sapiens;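 note: growth inhibition of KP-N-YN cells, read out with a cell viability assay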
Description: SANGER: Inhibition of human KP-N-YN cell growth in a cell viability assay.

NCI-H1581 = assay type: functional, cell-based, Homo sapiens; conditions: Homo sapiens, NCI-H1581;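 note: cell growth inhibition read out by a viability assay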
Description: SANGER: Inhibition of human NCI-H1581 cell growth in a cell viability assay.

SNU-C2B = assay type: functional, cell-based, Homo sapiens; conditions: Homo sapiens, SNU-C2B;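 note: cell viability readout used to measure compound-driven suppression of SNU-C2B cell proliferation, IC50 marking half-maximal growth inhibition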
Description: SANGER: Inhibition of human SNU-C2B cell growth in a cell viability assay.

SMILES | IC50 (D283 Med) [nM] | IC50 (TGBC1TKB) [nM] | IC50 (HAL-01) [nM] | IC50 (ONS-76) [nM] | IC50 (GI-ME-N) [nM] | IC50 (KG-1) [nM] | IC50 (8-MG-BA) [nM] | IC50 (NCI-H209) [nM] | IC50 (HOP-62) [nM] | IC50 (LAN-6) [nM] | IC50 (NKM-1) [nM] | IC50 (NCI-H720) [nM] | IC50 (A253 cell line) [nM] | IC50 (LB2518-MEL) [nM] | IC50 (NB14) [nM] | IC50 (NCI-H1155) [nM] | IC50 (EW-16) [nM] | IC50 (SJSA-1) [nM] | IC50 (BE-13) [nM] | IC50 (LB771-HNC) [nM] | further results
C=C1C(=O)O[C@@H]2C3O[C@]3(C)CC/C=C(\C)CC[C@@H]12 (stereo partly drawn) | > 5000 | > 5000 | > 5000 | > 5000 | > 5000 | > 5000 | > 5000 | > 5000 | > 5000 | > 5000 | > 5000 | > 5000 | > 5000 | > 5000 | > 5000 | > 5000 | > 5000 | > 5000 | > 5000 | > 5000 | IC50 (KURAMOCHI): > 5000 nM; IC50 (A4-Fuk): > 5000 nM; IC50 (IST-MES1): > 5000 nM; IC50 (KP-N-YN): > 5000 nM; IC50 (NCI-H1581): > 5000 nM
CC1=C2C[C@H]3[C@@H](CC=C4C[C@@H](O)CC[C@@]43C)[C@@H]2CC[C@]12O[C@@H]1C[C@H](C)CN[C@H]1[C@H]2C [CYCLOPAMINE] | > 16000 | > 16000 | > 16000 | > 16000 | > 16000 | > 16000 | 13100 | > 16000 | > 16000 | > 16000 | > 16000 | > 16000 | > 16000 | > 16000 | > 16000 | > 16000 | > 16000 | > 16000 | > 16000 | > 16000 | IC50 (A4-Fuk): > 16000 nM; IC50 (IST-MES1): > 16000 nM; IC50 (KP-N-YN): > 16000 nM; IC50 (NCI-H1581): > 16000 nM
CS(=O)(=O)CCNCc1ccc(-c2ccc3ncnc(Nc4ccc(OCc5cccc(F)c5)c(Cl)c4)c3c2)o1 [LAPATINIB] | > 2000 | > 2000 | > 2000 | > 2000 | > 2000 | > 2000 | > 2000 | > 2000 | > 2000 | > 2000 | > 2000 | > 2000 | 1970 | > 2000 | > 2000 | > 2000 | > 2000 | > 2000 | > 2000 | > 2000 | IC50 (KURAMOCHI): > 2000 nM; IC50 (A4-Fuk): > 2000 nM; IC50 (IST-MES1): > 2000 nM; IC50 (NCI-H1581): > 2000 nM
CCc1nc(N)nc(N)c1-c1ccc(Cl)cc1 [PYRIMETHAMINE] | > 20000 | > 20000 | 4740 | 9860 | 1400 | > 20000 | > 20000 | 6060 | 5020 | > 20000 | > 20000 | > 20000 | > 20000 | > 20000 | > 20000 | > 20000 | 15800 | 3770 | 7770 | > 20000 | IC50 (KURAMOCHI): > 20000 nM; IC50 (A4-Fuk): 15800 nM; IC50 (IST-MES1): > 20000 nM; IC50 (KP-N-YN): > 20000 nM; IC50 (NCI-H1581): > 20000 nM
CN1CCN(CCOc2cc(OC3CCOCC3)c3c(Nc4c(Cl)ccc5c4OCO5)ncnc3c2)CC1 [SARACATINIB] | > 2000 | > 2000 | > 2000 | > 2000 | > 2000 | > 2000 | > 2000 | > 2000 | 1500 | > 2000 | > 2000 | > 2000 | > 2000 | > 2000 | > 2000 | > 2000 | 1550 | > 2000 | > 2000 | > 2000 | IC50 (SNU-C2B): > 2000 nM; IC50 (KURAMOCHI): > 2000 nM; IC50 (A4-Fuk): > 2000 nM; IC50 (IST-MES1): > 2000 nM; IC50 (NCI-H1581): > 2000 nM
CO[C@H]1C[C@@H]2CC[C@@H](C)[C@@](O)(O2)C(=O)C(=O)N2CCCC[C@H]2C(=O)O[C@H]([C@H](C)C[C@@H]2CC[C@@H](O)[C@H](OC)C2)CC(=O)[C@H](C)/C=C(\C)[C@@H](O)[C@@H](OC)C(=O)[C@H](C)C[C@H](C)/C=C/C=C/C=C/1C [SIROLIMUS] | > 100 | 2.69 | > 100 | > 100 | > 100 | > 100 | > 100 | 87.4 | > 100 | > 100 | > 100 | 25.4 | > 100 | > 100 | > 100 | > 100 | 26.9 | > 100 | 2.99 | > 100 | IC50 (SNU-C2B): > 100 nM; IC50 (KURAMOCHI): > 100 nM; IC50 (A4-Fuk): 13.1 nM; IC50 (IST-MES1): > 100 nM; IC50 (NCI-H1581): > 100 nM
CCC(=O)N1CCN(c2ccc(-n3c(=O)ccc4cnc5ccc(-c6cnc7ccccc7c6)cc5c43)cc2C(F)(F)F)CC1 [TORIN1] | > 1200 | 3.79 | 76.6 | 131 | 180 | > 1200 | 46.3 | 230 | 35.6 | > 1200 | 987 | 550 | 989 | 87 | > 1200 | 654 | 11.9 | 41.9 | 37.6 | 75.5 | IC50 (SNU-C2B): 243 nM; IC50 (KURAMOCHI): 24.1 nM; IC50 (A4-Fuk): 13.2 nM; IC50 (IST-MES1): 235 nM; IC50 (NCI-H1581): 297 nM
Cc1cc(Nc2cc(N3CCN(C)CC3)nc(Sc3ccc(NC(=O)C4CC4)cc3)n2)n[nH]1 [TOZASERTIB] | > 2000 | > 2000 | 1170 | 665 | > 2000 | > 2000 | > 2000 | > 2000 | 863 | > 2000 | 1030 | > 2000 | > 2000 | > 2000 | > 2000 | > 2000 | 238 | > 2000 | 3.38 | > 2000 | IC50 (SNU-C2B): > 2000 nM; IC50 (KURAMOCHI): 1790 nM; IC50 (A4-Fuk): 116 nM; IC50 (IST-MES1): > 2000 nM; IC50 (NCI-H1581): > 2000 nM

From ChEMBL document CHEMBL1201861, “Genomics of Drug Sensitity in Cancer screening data, Wellcome Trust Sanger Institute”
